Test results published in BindingDB's records for doi:10.1016/j.bmcl.2019.126637 (Eli Lilly, 2019).

Molecular target: Cyclin-Y/Cyclin-dependent kinase 16 (Homo sapiens, UniProt Q00536+Q8ND76)
Assay: Competitive irreversible inhibition of CDK16/cyclin Y (unknown origin) in presence of Km ATP

Chain of Cyclin-Y/Cyclin-dependent kinase 16 (Q00536 whole entry): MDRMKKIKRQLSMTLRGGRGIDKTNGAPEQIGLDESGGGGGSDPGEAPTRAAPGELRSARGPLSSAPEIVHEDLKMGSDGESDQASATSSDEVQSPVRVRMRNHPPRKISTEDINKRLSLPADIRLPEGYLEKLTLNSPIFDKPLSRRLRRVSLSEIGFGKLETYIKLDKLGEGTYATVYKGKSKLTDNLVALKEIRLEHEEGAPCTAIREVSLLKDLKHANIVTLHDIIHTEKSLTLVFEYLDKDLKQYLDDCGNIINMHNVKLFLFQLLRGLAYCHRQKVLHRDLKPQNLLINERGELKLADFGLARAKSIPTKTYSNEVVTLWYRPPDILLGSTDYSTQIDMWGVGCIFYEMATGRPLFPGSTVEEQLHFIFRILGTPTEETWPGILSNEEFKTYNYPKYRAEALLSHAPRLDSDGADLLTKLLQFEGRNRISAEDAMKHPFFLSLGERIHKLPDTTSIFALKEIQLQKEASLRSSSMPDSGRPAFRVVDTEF
Chain of Cyclin-Y/Cyclin-dependent kinase 16 (Q8ND76 whole entry): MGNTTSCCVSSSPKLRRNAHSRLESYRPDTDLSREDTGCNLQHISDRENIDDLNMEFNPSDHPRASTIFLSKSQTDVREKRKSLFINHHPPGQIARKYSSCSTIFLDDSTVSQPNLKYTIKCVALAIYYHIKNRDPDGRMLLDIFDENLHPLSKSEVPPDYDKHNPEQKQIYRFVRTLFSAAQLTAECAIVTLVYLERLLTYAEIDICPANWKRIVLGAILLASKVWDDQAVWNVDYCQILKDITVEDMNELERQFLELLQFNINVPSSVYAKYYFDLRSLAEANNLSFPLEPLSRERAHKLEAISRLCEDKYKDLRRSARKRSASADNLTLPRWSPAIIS

CN(C)C/C=C/C(=O)Nc1cccc(S(=O)(=O)N2CCC(NC(=O)c3n[nH]cc3NC(=O)c3c(Cl)cc(Cl)cc3Cl)CC2)c1
IC50: 10 nM
